Ki data for 5 molecules are collected here from BindingDB's records for PubMed 10411589 (The University of Queensland, 1999).

In test [1] the target is Sodium-dependent noradrenaline transporter (Bos taurus, UniProt P51143).
Test [2] has as its target Norepinephrine transporter (Rattus norvegicus, UniProt Q9JIA2).
Test [3] concerns the target Sodium-dependent noradrenaline transporter (Homo sapiens, UniProt P23975).

Sequence of Sodium-dependent noradrenaline transporter (Bos taurus, UniProt P51143) (P51143 whole entry): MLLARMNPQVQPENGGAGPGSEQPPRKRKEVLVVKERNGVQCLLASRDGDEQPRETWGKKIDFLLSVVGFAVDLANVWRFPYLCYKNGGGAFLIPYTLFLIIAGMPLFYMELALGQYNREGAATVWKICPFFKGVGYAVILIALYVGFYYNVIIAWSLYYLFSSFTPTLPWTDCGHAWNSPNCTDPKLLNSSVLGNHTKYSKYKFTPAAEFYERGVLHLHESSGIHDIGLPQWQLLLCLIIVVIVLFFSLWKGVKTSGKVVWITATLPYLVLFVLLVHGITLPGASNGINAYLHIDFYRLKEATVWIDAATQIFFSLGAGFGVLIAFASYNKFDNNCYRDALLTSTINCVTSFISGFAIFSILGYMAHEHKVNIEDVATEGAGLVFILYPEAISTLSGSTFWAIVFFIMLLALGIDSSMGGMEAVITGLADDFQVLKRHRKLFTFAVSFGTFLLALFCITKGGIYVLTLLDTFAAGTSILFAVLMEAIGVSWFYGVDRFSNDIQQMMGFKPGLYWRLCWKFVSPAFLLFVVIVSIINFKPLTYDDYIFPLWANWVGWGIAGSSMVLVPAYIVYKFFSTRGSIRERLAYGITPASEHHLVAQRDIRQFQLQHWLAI
Sequence of Sodium-dependent noradrenaline transporter (Homo sapiens, UniProt P23975) (P23975 whole entry): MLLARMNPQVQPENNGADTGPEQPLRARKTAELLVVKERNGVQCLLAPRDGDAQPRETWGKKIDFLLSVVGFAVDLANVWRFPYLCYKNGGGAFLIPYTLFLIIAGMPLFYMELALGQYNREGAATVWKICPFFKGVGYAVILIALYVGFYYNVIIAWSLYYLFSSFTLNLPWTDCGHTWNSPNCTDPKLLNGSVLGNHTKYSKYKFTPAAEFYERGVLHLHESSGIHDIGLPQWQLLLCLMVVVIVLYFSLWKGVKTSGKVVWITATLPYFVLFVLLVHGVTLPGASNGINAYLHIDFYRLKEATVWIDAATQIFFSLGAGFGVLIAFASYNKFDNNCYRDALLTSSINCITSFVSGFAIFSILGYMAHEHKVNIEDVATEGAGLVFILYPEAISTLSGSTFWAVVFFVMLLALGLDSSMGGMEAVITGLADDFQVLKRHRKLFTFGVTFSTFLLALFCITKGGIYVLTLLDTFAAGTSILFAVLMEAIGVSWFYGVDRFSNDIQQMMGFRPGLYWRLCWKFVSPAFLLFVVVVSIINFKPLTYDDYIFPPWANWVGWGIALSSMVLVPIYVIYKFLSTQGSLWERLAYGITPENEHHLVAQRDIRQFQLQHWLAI

For `CN(C)CCCN1c2ccccc2CCc2ccccc21`, the affinity in test [1], expressed as Ki, was 0.0936 µM.
With `NCCc1ccc(O)c(O)c1`, the figures for the Ki in test [1] and in test [2] were 0.397 µM and 0.392 µM, respectively.
For `CNCCC(Oc1ccccc1OC)c1ccccc1` (stereo not given) [3-(2-methoxyphenoxy)-N-methyl-3-phenylpropan-1-amine], the affinity in test [2], expressed as Ki, was 0.00574 µM.
As for `CNCC(O)c1ccc(O)c(O)c1` (stereo not given) [EPINEPHRINE], the Ki amounted to 5 µM in test [1], 6.5 µM in test [2] and 3.68 µM in test [3].
In the case of `C[n+]1ccc(-c2ccccc2)cc1` [NSC_39484], the Ki came out at 0.57 µM in test [1], 0.778 µM in test [2] and 0.507 µM in test [3].

A word on the Ki: it is a measure of affinity in units of concentration, obtained from inhibition or displacement. Low readings indicate tighter binding, high ones weaker binding.
